Among the test systems are NCI-H226; UACC-62; HCT-116; UACC-257; TK-10; KM12; HCT-15; SK-MEL-28; 786-0; NCI-H460; SNB-75; M14; HCC 2998; BT-549; SNB-19; A498; MOLT-4; T47D; RXF 393; OVCAR-4.
Holding throughout (assay): NCI-60 cell line screen, 48 h

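How tested: cells in 96-well plates exposed to compound for 48 hours at five concentrations. Here, GI50 denotes the concentration required for 50% inhibition of growth.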 Activity calls are given as the source filed them. Rule as the data show it: active = GI50 up to about 1.1 µM and inactive = higher.

For `O=C(OCC12CC3CC(CC(C3)C1)C2)c1ccc(NCc2cc(O)ccc2O)cc1`, the GI50 in the test with NCI-H226 is 1.77 µM (inactive); in the test on UACC-62, 1.6 µM (inactive); in the test with HCT-116, 2.26 µM (inactive); in the test on UACC-257, 1.64 µM (inactive); in the test with TK-10 it was 1.99 µM (inactive); in the test on KM12 it was 1.24 µM (inactive). For the same compound, the GI50 in the test on HCT-15 is 1.32 µM; with SK-MEL-28, 1.54 µM (inactive); in the test with 786-0, 0.708 µM (active); in the test on NCI-H460, 2.57 µM (inactive); in the test on SNB-75, 1.81 µM (inactive); in the test on M14, 1.96 µM (inactive). The GI50 was 1.79 µM (inactive) in the test with HCC 2998; 0.331 µM (active) in the test on BT-549; 4.33 µM (inactive) in the test with SNB-19; 3.72 µM (inactive) in the test with A498; 0.115 µM (active) in the test on MOLT-4; 0.473 µM (active) with T47D. Moreover, the GI50 with RXF 393 was 1.29 µM (inactive); with OVCAR-4 it was 1.05 µM (active).
As for `CC(=O)N1C2=CCCC2(C)c2ccccc21` (stereo not given), the GI50 in the test with NCI-H226 is > 100 µM (inactive); in the test with UACC-62, 80.4 µM (inactive); with HCT-116, 37.1 µM (inactive); with UACC-257 it was 68.7 µM (inactive); in the test on TK-10, > 100 µM (inactive); in the test on KM12, 64.9 µM (inactive). The GI50 is more than 100 µM in the test on HCT-15; > 100 µM (inactive) with SK-MEL-28; > 100 µM (inactive) in the test with 786-0; 72.8 µM (inactive) with NCI-H460; 38.3 µM (inactive) with SNB-75; > 100 µM (inactive) in the test on M14. Also, the GI50 with HCC 2998 was 26.5 µM (inactive); in the test on BT-549, > 100 µM (inactive); in the test with SNB-19, > 100 µM (inactive); in the test on A498, > 100 µM (inactive); in the test with MOLT-4 it was 62.8 µM (inactive); in the test with T47D it was 79.3 µM (inactive). In addition, the GI50 was > 100 µM (inactive) with RXF 393 and 77.6 µM (inactive) in the test on OVCAR-4.
As to `O=C(O)c1cc(/N=N/c2ccc([N+](=O)[O-])cc2)ccc1O`, the GI50 in the test on NCI-H226 is 17 µM (inactive); in the test with UACC-62, 31.3 µM (inactive); in the test on HCT-116, 30.5 µM (inactive); in the test with UACC-257 it was 24 µM (inactive); with TK-10, 25.6 µM (inactive); in the test with KM12, 33.2 µM (inactive). Besides, the GI50 with HCT-15 was 31.8 µM; in the test on SK-MEL-28, 37.7 µM (inactive); in the test with 786-0, 34.3 µM (inactive); in the test on NCI-H460, 28.2 µM (inactive); in the test on SNB-75, 38.7 µM (inactive); with M14, 39.4 µM (inactive). In addition, the GI50 in the test with HCC 2998 was 18.7 µM (inactive); in the test with BT-549 it was 42.4 µM (inactive); in the test with SNB-19, 30.9 µM (inactive); in the test on A498, 19.5 µM (inactive); in the test with MOLT-4, 24.8 µM (inactive); with T47D, 42.6 µM (inactive). In addition, the GI50 is 42.3 µM (inactive) in the test on RXF 393 and 23.9 µM (inactive) in the test with OVCAR-4.
As to `COc1nc(N=P(c2ccccc2)(c2ccccc2)c2ccccc2)cc(=O)[nH]1`, the GI50 with NCI-H226, in the test on UACC-62, with HCT-116, with UACC-257, in the test on TK-10 and in the test on KM12 was > 100 µM (inactive) throughout. The GI50 in the test with HCT-15 is more than 100 µM; with SK-MEL-28, > 100 µM (inactive); with 786-0, > 100 µM (inactive); in the test with NCI-H460, > 100 µM (inactive); with SNB-75 it was > 100 µM (inactive); with M14 it was > 100 µM (inactive). The GI50 in the test on HCC 2998, in the test with BT-549, in the test on SNB-19, in the test with A498, with MOLT-4 and in the test with T47D was > 100 µM (inactive) in each case. Further, the GI50 in the test with RXF 393 and with OVCAR-4 was > 100 µM (inactive) in each case.
Take `CCOc1cc(NC(C)=O)ccc1C(=O)NN1C(=O)C(Cl)C1c1ccc(O)c(OC)c1` (stereo not given): the GI50 with NCI-H226 is 10.2 µM (inactive); in the test with UACC-62 it was 12.3 µM (inactive); in the test with HCT-116, 18.2 µM (inactive); with UACC-257 it was 11.8 µM (inactive); in the test on TK-10 it was 3.08 µM (inactive); with KM12, 17.6 µM (inactive). Also, the GI50 with HCT-15 was 14.2 µM; in the test on SK-MEL-28, 16.9 µM (inactive); with 786-0, 13.1 µM (inactive); in the test with NCI-H460, 16.4 µM (inactive); with SNB-75, 11.8 µM (inactive); in the test on M14 it was 11.8 µM (inactive). Also, the GI50 in the test with HCC 2998 was 17.2 µM (inactive); in the test with BT-549, 8.83 µM (inactive); in the test on SNB-19, 15.8 µM (inactive); with A498 it was 14.6 µM (inactive); in the test with MOLT-4, 5.3 µM (inactive); in the test on T47D it was 12.2 µM (inactive). For the same compound, the values for the GI50 in the test on RXF 393 and with OVCAR-4 were 12 µM (inactive) and 12.8 µM (inactive), respectively.

For the origin of these results see ChEMBL document CHEMBL1201862, “PubChem BioAssay data set” (2004).
